{
  "source": "patent US11964980B2",
  "about": "“Crystalline forms of (S)-1-(4-fluorophenyl)-1-(2-(4-(6-(1-methyl-1H-pyrazol-4-yl)pyrrolo[2,1- f][1,2,4]triazin-4-yl)piperazinyl)-pyrimidin-5-yl)ethan-1-amine and methods of making” (Blueprint Medicines Corporation, priority 2019, dated 2024)",
  "key": {"PDGFRA D842V-mutant GIST": {"system": "PDGFRA D842V-mutant GIST", "test": "Phase 1 dose escalation and expansion study in advanced GIST: efficacy (mRECIST 1.1, central radiology)", "format": "in vivo, human", "conditions": "for OS (estimated): median follow up 15.9 months", "source_text": "Patients: Eligibility criteria for the phase 1 dose escalation and expansion study included provision of written informed consent, age ≥18 years, Eastern Cooperative Oncology Group performance status ≤2, and adequate end-organ function. The dose escalation part of the trial was open to patients with refractory solid tumors or unresectable GIST; however, only GIST patients were enrolled. Patients with unresectable GIST who had one or more measurable target lesion per modified Response Evaluation Criteria in Solid Tumors version 1.1 (mRECIST 1.1) were eligible for the dose expansion, which included three cohorts: patients with PDGFRA D842V-mutant GIST regardless of prior therapy; patients who progressed following imatinib and one or more other kinase inhibitors; and patients who received only imatinib.\nStudy Design: The primary endpoints of the phase 1, open-label dose escalation/expansion study were safety and tolerability of Compound (I) administered orally once daily and overall response rate (ORR) for each expansion cohort. Part 1 followed a 3+3 dose-escalation design, starting at 30 mg and continuing until the maximum tolerated dose (MTD) or the recommended phase 2 dose (RP2D) below the MTD was determined. Intrapatient dose escalation was permitted, and additional accrual was allowed to dose levels previously determined tolerable. The part 1 MTD was used to initiate the part 2 expansion. Treatment with Compound (I) was continued until precluded by toxicity, noncompliance, withdrawal of consent, physician decision, progressive disease, death, or closure of the study.\nSafety and Response Assessments: Adverse events were evaluated at each visit from the start of study drug administration up to 30 days after the final dose of Compound (I) and were graded according to the National Cancer Institute Common Terminology Criteria for Adverse Events (NCI CTCAE) version 4.03. All patients underwent tumor imaging for response assessment via computed tomography (CT) or magnetic resonance imaging (MRI) at screening, every two cycles through and including cycle 13, then every three months until progression or discontinuation. Target and non-target lesions were identified and assessed per mRECIST 1.1 for GIST by independent, blinded, central radiographic review (BioTelemetry, Inc., Rockville, MD, USA).\nStatistical Methods: The MTD, defined as the highest dose level with ≤1 cycle 1 dose limiting toxicity in six patients, was determined from all part 1 patients who completed cycle 1 and received at least 75% of their prescribed doses or experienced a dose limiting toxicity (DLT) (dose-determining population). The efficacy population included patients who received at least one dose of Compound (I) enrolled in part 1 or part 2 with PDGFRα D842V-mutant GIST who had one or more target lesions and at least one post-baseline disease assessment by central radiology. For the primary endpoint of partial or complete response, a sample size of 31 patients allowed testing the null hypothesis of overall response rate ≤10% versus the alternative hypothesis of objective response rate ≥35% with 90% power, assuming a 2-sided type I error rate of 0.05. Kaplan-Meier methods were used to estimate duration of response, PFS and OS, including the median with 95% confidence intervals. Estimated duration of response, PFS, and OS rates at 3-, 6-, and 12-months were also calculated."}, "KIT D816V": {"target": "KIT D816V (Homo sapiens, UniProt P10721, D816V)", "sequence (P10721 26-976 D816V)": "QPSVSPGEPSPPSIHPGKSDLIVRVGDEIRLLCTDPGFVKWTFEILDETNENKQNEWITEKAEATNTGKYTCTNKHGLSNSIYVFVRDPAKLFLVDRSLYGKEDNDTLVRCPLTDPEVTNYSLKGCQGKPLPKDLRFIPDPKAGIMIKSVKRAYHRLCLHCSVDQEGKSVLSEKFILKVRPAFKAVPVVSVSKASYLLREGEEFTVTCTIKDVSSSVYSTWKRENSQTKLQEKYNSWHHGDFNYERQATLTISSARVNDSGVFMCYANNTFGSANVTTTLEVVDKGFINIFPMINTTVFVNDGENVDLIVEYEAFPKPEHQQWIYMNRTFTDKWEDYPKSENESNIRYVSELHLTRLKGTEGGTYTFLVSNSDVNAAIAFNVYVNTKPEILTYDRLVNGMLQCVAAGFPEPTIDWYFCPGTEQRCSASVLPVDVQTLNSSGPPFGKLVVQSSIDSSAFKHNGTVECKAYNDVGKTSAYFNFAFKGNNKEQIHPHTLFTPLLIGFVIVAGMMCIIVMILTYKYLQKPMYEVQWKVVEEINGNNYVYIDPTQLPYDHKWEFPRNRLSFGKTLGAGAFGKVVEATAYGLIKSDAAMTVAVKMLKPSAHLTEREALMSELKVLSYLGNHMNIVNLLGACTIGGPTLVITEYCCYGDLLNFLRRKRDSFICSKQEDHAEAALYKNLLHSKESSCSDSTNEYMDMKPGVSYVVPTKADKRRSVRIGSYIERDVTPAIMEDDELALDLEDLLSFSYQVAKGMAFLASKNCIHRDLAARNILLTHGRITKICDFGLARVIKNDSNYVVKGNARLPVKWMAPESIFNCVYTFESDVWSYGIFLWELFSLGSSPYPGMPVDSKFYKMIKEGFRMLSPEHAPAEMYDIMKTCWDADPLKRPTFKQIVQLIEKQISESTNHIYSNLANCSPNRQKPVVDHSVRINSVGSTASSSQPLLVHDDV", "test": "Activity in vitro against KIT D816V"}},
  "data": [
    {"smiles": "Cn1cc(-c2cc3c(N4CCN(c5ncc([C@@](C)(N)c6ccc(F)cc6)cn5)CC4)ncnn3c2)cn1", "note": "[Compound (I), (S)-1-(4-fluorophenyl)-1-(2-(4-(6-(1-methyl-1H-pyrazol-4-yl)pyrrolo[2,1-f][1,2,4]triazin-4-yl)piperazin-1-yl)pyrimidin-5-yl)ethan-1-amine]", "values": [
      {"measurement": "CBR (CR + PR + SD)", "setting": "PDGFRA D842V-mutant GIST; 300 mg (n = 28)", "result": "(96.4) %"},
      {"measurement": "CBR (CR + PR + SD), number of patients", "setting": "PDGFRA D842V-mutant GIST; 300 mg (n = 28)", "result": 27, "unit": "n"},
      {"measurement": "CR", "setting": "PDGFRA D842V-mutant GIST; 300 mg (n = 28)", "result": "(3.6) %"},
      {"measurement": "CR, number of patients", "setting": "PDGFRA D842V-mutant GIST; 300 mg (n = 28)", "result": 1, "unit": "n"},
      {"measurement": "ORR (CR + PR), number of patients", "setting": "PDGFRA D842V-mutant GIST; 300 mg (n = 28)", "result": 26, "unit": "n"},
      {"measurement": "PD, number of patients", "setting": "PDGFRA D842V-mutant GIST; 300 mg (n = 28)", "result": 0, "unit": "n"},
      {"measurement": "PR", "setting": "PDGFRA D842V-mutant GIST; 300 mg (n = 28)", "result": "(89.2) %"},
      {"measurement": "PR, number of patients", "setting": "PDGFRA D842V-mutant GIST; 300 mg (n = 28)", "result": 25, "unit": "n"},
      {"measurement": "Progression free survival rate", "setting": "PDGFRA D842V-mutant GIST; 3-month", "result": 100, "unit": "%"},
      {"measurement": "Progression free survival rate", "setting": "PDGFRA D842V-mutant GIST; 6-month", "result": 94, "unit": "%"},
      {"measurement": "OS (estimated)", "setting": "PDGFRA D842V-mutant GIST; 6 months", "result": 100, "unit": "%"},
      {"measurement": "Progression free survival rate", "setting": "PDGFRA D842V-mutant GIST; 12-month", "result": 90, "unit": "%"},
      {"measurement": "OS (estimated)", "setting": "PDGFRA D842V-mutant GIST; 12 months", "result": 91, "unit": "%"},
      {"measurement": "OS (estimated)", "setting": "PDGFRA D842V-mutant GIST; 24 months", "result": 81, "unit": "%"},
      {"measurement": "CBR (CR + PR + SD), number of patients", "setting": "PDGFRA D842V-mutant GIST; All Doses (n = 56)", "result": 53, "unit": "n"},
      {"measurement": "CR, number of patients", "setting": "PDGFRA D842V-mutant GIST; All Doses (n = 56)", "result": 5, "unit": "n"},
      {"measurement": "ORR (CR + PR), number of patients", "setting": "PDGFRA D842V-mutant GIST; All Doses (n = 56)", "result": 49, "unit": "n"},
      {"measurement": "PD, number of patients", "setting": "PDGFRA D842V-mutant GIST; All Doses (n = 56)", "result": 0, "unit": "n"},
      {"measurement": "PR, number of patients", "setting": "PDGFRA D842V-mutant GIST; All Doses (n = 56)", "result": 44, "unit": "n"},
      {"measurement": "Median PFS", "setting": "PDGFRA D842V-mutant GIST; all dose levels", "result": "not reached"},
      {"measurement": "Median duration of response", "setting": "PDGFRA D842V-mutant GIST; all dose levels", "result": "not reached"},
      {"measurement": "12-month duration of response", "setting": "PDGFRA D842V-mutant GIST; all dose levels, Kaplan-Meier", "result": 70, "unit": "%"},
      {"measurement": "Activity in vitro against KIT D816V", "setting": "KIT D816V", "result": "potent and selective activity"}
    ]}
  ]
}
